Source: ChEMBL document CHEMBL1201862, “PubChem BioAssay data set” (2004)
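Five compound concentrations were applied to cells in 96-well plates for 48 hours; endpoints were derived by simple linear interpolation of the resulting dose-response curve. GI50 = concentration required for 50% inhibition of growth.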 The source made the active and inactive calls. Cut-off read from the data, not from the text of the source: active = GI50 up to about 1.1 µM and inactive = higher.

Columns and labels:
Test in all cases: NCI tumour cell line growth inhibition, 48 h
786-0 = test system: 786-0
A498 = test system: A498
A549 = test system: A549
ACHN = test system: ACHN
BT-549 = test system: BT-549
CAKI-1 = test system: CAKI-1
CCRF-CEM = test system: CCRF-CEM
COLO 205 = test system: COLO 205
DU-145 = test system: DU-145
EKVX = test system: EKVX
HCC 2998 = test system: HCC 2998
HCT-116 = test system: HCT-116
HCT-15 = test system: HCT-15
HL-60 = test system: HL-60
HOP-62 = test system: HOP-62
HOP-92 = test system: HOP-92
HT-29 = test system: HT-29
Hs-578T = test system: Hs-578T
IGROV-1 = test system: IGROV-1
K562 = test system: K562
KM12 = test system: KM12
LOX IMVI = test system: LOX IMVI
M14 = test system: M14
MDA-MB-231 = test system: MDA-MB-231
MDA-MB-435 = test system: MDA-MB-435
MOLT-4 = test system: MOLT-4
Malme-3M = test system: Malme-3M
NCI-H226 = test system: NCI-H226
NCI-H23 = test system: NCI-H23
NCI-H460 = test system: NCI-H460
NCI-H522 = test system: NCI-H522
NCI/ADR-RES = test system: NCI/ADR-RES
OVCAR-3 = test system: OVCAR-3
OVCAR-4 = test system: OVCAR-4
OVCAR-5 = test system: OVCAR-5
OVCAR-8 = test system: OVCAR-8
PC-3 = test system: PC-3
RPMI-8226 = test system: RPMI-8226
RXF 393 = test system: RXF 393
SF-268 = test system: SF-268
SF-295 = test system: SF-295
SK-MEL-28 = test system: SK-MEL-28
SK-MEL-2 = test system: SK-MEL-2
SK-MEL-5 = test system: SK-MEL-5
SK-OV-3 = test system: SK-OV-3
SNB-19 = test system: SNB-19
SNB-75 = test system: SNB-75
SR = test system: SR
SW-620 = test system: SW-620
T47D = test system: T47D
TK-10 = test system: TK-10
U-251 = test system: U-251
UACC-257 = test system: UACC-257
UACC-62 = test system: UACC-62
UO-31 = test system: UO-31
SN12C = test system: SN12C
MCF7 = test system: MCF7
SF-539 = test system: SF-539

Compound: Cc1ccc([S+]([O-])C[C@](NC(=O)OCc2ccccc2)(Sc2ccccc2)C(F)F)cc1 (some centres undefined)
- GI50 (786-0): 13 µM (inactive)
- GI50 (A498): 13.5 µM (inactive)
- GI50 (A549): 28.6 µM (inactive)
- GI50 (ACHN): 20.7 µM (inactive)
- GI50 (BT-549): 16.3 µM (inactive)
- GI50 (CAKI-1): 21.5 µM (inactive)
- GI50 (CCRF-CEM): 1.11 µM (active)
- GI50 (COLO 205): 19.4 µM (inactive)
- GI50 (DU-145): 18.7 µM (inactive)
- GI50 (EKVX): 13.7 µM (inactive)
- GI50 (HCC 2998): 18.7 µM (inactive)
- GI50 (HCT-116): 16.3 µM (inactive)
- GI50 (HCT-15): 17.1 µM
- GI50 (HL-60): 4.12 µM (inactive)
- GI50 (HOP-62): 35.8 µM (inactive)
- GI50 (HOP-92): 17.8 µM (inactive)
- GI50 (HT-29): 16.6 µM (inactive)
- GI50 (Hs-578T): 23.9 µM (inactive)
- GI50 (IGROV-1): 8.69 µM (inactive)
- GI50 (K562): 10.2 µM (inactive)
- GI50 (KM12): 14.6 µM (inactive)
- GI50 (LOX IMVI): 4.16 µM (inactive)
- GI50 (M14): 33.3 µM (inactive)
- GI50 (MDA-MB-231): 19.4 µM (inactive)
- GI50 (MDA-MB-435): 29.7 µM (inactive)
- GI50 (MOLT-4): 3.4 µM (inactive)
- GI50 (Malme-3M): 21.3 µM (inactive)
- GI50 (NCI-H226): 12.9 µM (inactive)
- GI50 (NCI-H23): 17.7 µM (inactive)
- GI50 (NCI-H460): 17.9 µM (inactive)
- GI50 (NCI-H522): 7.13 µM (inactive)
- GI50 (NCI/ADR-RES): 17 µM (inactive)
- GI50 (OVCAR-3): 24.3 µM (inactive)
- GI50 (OVCAR-4): 13.2 µM (inactive)
- GI50 (OVCAR-5): 31.6 µM (inactive)
- GI50 (OVCAR-8): 19.1 µM (inactive)
- GI50 (PC-3): 21.2 µM (inactive)
- GI50 (RPMI-8226): 10.4 µM (inactive)
- GI50 (RXF 393): 21.7 µM (inactive)
- GI50 (SF-268): 16.9 µM (inactive)
- GI50 (SF-295): 16.8 µM (inactive)
- GI50 (SK-MEL-28): 18 µM (inactive)
- GI50 (SK-MEL-2): 27.6 µM (inactive)
- GI50 (SK-MEL-5): 13.3 µM (inactive)
- GI50 (SK-OV-3): 16.7 µM (inactive)
- GI50 (SNB-19): 14.4 µM (inactive)
- GI50 (SNB-75): 13.2 µM (inactive)
- GI50 (SR): 10.8 µM (inactive)
- GI50 (SW-620): 19.6 µM (inactive)
- GI50 (T47D): 10.5 µM (inactive)
- GI50 (TK-10): 20.3 µM (inactive)
- GI50 (U-251): 17 µM (inactive)
- GI50 (UACC-257): 15 µM (inactive)
- GI50 (UACC-62): 14.8 µM (inactive)
- GI50 (UO-31): 6.56 µM (inactive)

Compound: COc1ccc(-c2c(C#N)c(N)nc3c2CCS(=O)(=O)c2ccccc2-3)cc1
- GI50 (786-0): 68.2 µM (inactive)
- GI50 (A498): > 100 µM (inactive)
- GI50 (A549): > 100 µM (inactive)
- GI50 (ACHN): > 100 µM (inactive)
- GI50 (BT-549): > 100 µM (inactive)
- GI50 (CAKI-1): > 100 µM (inactive)
- GI50 (CCRF-CEM): > 100 µM (inactive)
- GI50 (COLO 205): > 100 µM (inactive)
- GI50 (DU-145): > 100 µM (inactive)
- GI50 (HCC 2998): > 100 µM (inactive)
- GI50 (HCT-116): > 100 µM (inactive)
- GI50 (HCT-15): > 100 µM
- GI50 (HL-60): > 100 µM (inactive)
- GI50 (HOP-92): > 100 µM (inactive)
- GI50 (HT-29): > 100 µM (inactive)
- GI50 (Hs-578T): 37.7 µM (inactive)
- GI50 (IGROV-1): > 100 µM (inactive)
- GI50 (K562): > 100 µM (inactive)
- GI50 (KM12): > 100 µM (inactive)
- GI50 (LOX IMVI): > 100 µM (inactive)
- GI50 (MDA-MB-231): > 100 µM (inactive)
- GI50 (MDA-MB-435): > 100 µM (inactive)
- GI50 (Malme-3M): 44.3 µM (inactive)
- GI50 (NCI-H226): > 100 µM (inactive)
- GI50 (NCI-H23): > 100 µM (inactive)
- GI50 (NCI-H460): > 100 µM (inactive)
- GI50 (NCI-H522): > 100 µM (inactive)
- GI50 (NCI/ADR-RES): > 100 µM (inactive)
- GI50 (OVCAR-4): > 100 µM (inactive)
- GI50 (OVCAR-8): > 100 µM (inactive)
- GI50 (PC-3): > 100 µM (inactive)
- GI50 (SF-268): > 100 µM (inactive)
- GI50 (SK-MEL-28): > 100 µM (inactive)
- GI50 (SK-MEL-2): > 100 µM (inactive)
- GI50 (SK-MEL-5): > 100 µM (inactive)
- GI50 (SN12C): > 100 µM (inactive)
- GI50 (SNB-19): > 100 µM (inactive)
- GI50 (SNB-75): 38.5 µM (inactive)
- GI50 (SR): > 100 µM (inactive)
- GI50 (SW-620): > 100 µM (inactive)
- GI50 (T47D): > 100 µM (inactive)
- GI50 (TK-10): > 100 µM (inactive)
- GI50 (U-251): > 100 µM (inactive)
- GI50 (UACC-257): > 100 µM (inactive)
- GI50 (UACC-62): > 100 µM (inactive)
- GI50 (UO-31): > 100 µM (inactive)

Compound: O=C1c2cccc3cc([N+](=O)[O-])cc(c23)C(=O)N1Nc1ccc([N+](=O)[O-])cc1[N+](=O)[O-]
- GI50 (786-0): 13.6 µM (inactive)
- GI50 (A498): 18.4 µM (inactive)
- GI50 (A549): 16.3 µM (inactive)
- GI50 (ACHN): 0.557 µM (active)
- GI50 (BT-549): 19.4 µM (inactive)
- GI50 (CAKI-1): 15.1 µM (inactive)
- GI50 (CCRF-CEM): 1.85 µM (inactive)
- GI50 (COLO 205): 11.5 µM (inactive)
- GI50 (DU-145): 40.8 µM (inactive)
- GI50 (EKVX): 24.4 µM (inactive)
- GI50 (HCC 2998): 14 µM (inactive)
- GI50 (HCT-116): 10.9 µM (inactive)
- GI50 (HCT-15): 14.5 µM
- GI50 (HL-60): 4.23 µM (inactive)
- GI50 (HOP-62): 14 µM (inactive)
- GI50 (HOP-92): 17.9 µM (inactive)
- GI50 (HT-29): 12.9 µM (inactive)
- GI50 (Hs-578T): > 31.6 µM (inactive)
- GI50 (IGROV-1): 12.4 µM (inactive)
- GI50 (K562): 4.29 µM (inactive)
- GI50 (KM12): 14.6 µM (inactive)
- GI50 (LOX IMVI): 10.5 µM (inactive)
- GI50 (M14): 24.7 µM (inactive)
- GI50 (MCF7): 14.5 µM (inactive)
- GI50 (MDA-MB-231): 16.8 µM (inactive)
- GI50 (MDA-MB-435): 20.2 µM (inactive)
- GI50 (MOLT-4): 1.97 µM (inactive)
- GI50 (Malme-3M): 20.1 µM (inactive)
- GI50 (NCI-H226): 14.5 µM (inactive)
- GI50 (NCI-H23): 17.9 µM (inactive)
- GI50 (NCI-H460): 7.41 µM (inactive)
- GI50 (NCI-H522): 11.6 µM (inactive)
- GI50 (NCI/ADR-RES): 19.1 µM (inactive)
- GI50 (OVCAR-3): 22.3 µM (inactive)
- GI50 (OVCAR-4): 19.3 µM (inactive)
- GI50 (OVCAR-5): > 70.5 µM (inactive)
- GI50 (OVCAR-8): 13 µM (inactive)
- GI50 (PC-3): 17.9 µM (inactive)
- GI50 (RPMI-8226): 12.8 µM (inactive)
- GI50 (RXF 393): 23.3 µM (inactive)
- GI50 (SF-268): 21.7 µM (inactive)
- GI50 (SF-295): 27 µM (inactive)
- GI50 (SF-539): 10.6 µM (inactive)
- GI50 (SK-MEL-28): 11.9 µM (inactive)
- GI50 (SK-MEL-2): > 100 µM (inactive)
- GI50 (SK-MEL-5): 13 µM (inactive)
- GI50 (SK-OV-3): > 31.6 µM (inactive)
- GI50 (SN12C): 22.8 µM (inactive)
- GI50 (SNB-19): 18.2 µM (inactive)
- GI50 (SNB-75): 18.2 µM (inactive)
- GI50 (SR): 2.64 µM (inactive)
- GI50 (SW-620): 10 µM (inactive)
- GI50 (T47D): 16.4 µM (inactive)
- GI50 (TK-10): 31.8 µM (inactive)
- GI50 (U-251): 13.3 µM (inactive)
- GI50 (UACC-257): 13.3 µM (inactive)
- GI50 (UACC-62): 13.6 µM (inactive)
- GI50 (UO-31): 12.1 µM (inactive)
